This note sets out measurements from the NIST ThermoML archive (doi:10.1021/je900021g).

Numbers after ± are expanded uncertainties.

For this data set the following is noted: Crystal; DTA.

With `O=C(O)CCC(=O)O` [butanedioic acid], the Normal melting temperature was determined as 188 ± 1 °C.
